Each structure is given as a SMILES string. Numbered stars: 1 amine (or outer) side, 2 acyl side, 3 side chain; on linkers, the order of the positions; unused ones are H or OH. Side chains are listed from the residue outwards. Peptide text beside a SMILES is read from it. * marks the point of attachment. C18 diacid = O=C(O)CCCCCCCCCCCCCCCCC(=O)*; γGlu = O=C(O)[C@H](CCC(=O)[*:2])N[*:1]; AEEA = NCCOCCOCC(=O)O

Our source for the EC50 values is patent publication US20160271263A1 (Novo Nordisk A/S, priority 2010, published 2016).

The target in this assay is glucagon receptor (Homo sapiens, UniProt P47871). Put plainly: cell-based.
Chain of glucagon receptor (P47871 26-477): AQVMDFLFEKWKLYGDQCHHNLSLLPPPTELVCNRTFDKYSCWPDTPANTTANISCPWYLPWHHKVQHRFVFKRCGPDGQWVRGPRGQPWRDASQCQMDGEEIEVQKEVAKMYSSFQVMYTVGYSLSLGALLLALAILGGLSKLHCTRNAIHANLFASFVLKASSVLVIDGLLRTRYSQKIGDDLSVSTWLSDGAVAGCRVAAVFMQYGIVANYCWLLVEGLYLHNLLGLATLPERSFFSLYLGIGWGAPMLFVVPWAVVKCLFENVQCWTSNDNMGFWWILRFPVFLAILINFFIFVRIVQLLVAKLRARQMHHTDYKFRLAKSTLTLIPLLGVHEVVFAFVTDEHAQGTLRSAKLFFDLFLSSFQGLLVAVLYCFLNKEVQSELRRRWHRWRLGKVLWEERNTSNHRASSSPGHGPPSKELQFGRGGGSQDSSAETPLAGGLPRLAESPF
The term EC50 denotes the concentration needed to bring the measured effect to its halfway point. Compound `CC(C)C[C@H](NC(=O)[C@H](Cc1ccc(O)cc1)NC(=O)[C@H](CCCCN)NC(=O)[C@H](CO)NC(=O)[C@H](Cc1ccc(O)cc1)NC(=O)[C@H](CC(=O)O)NC(=O)[C@H](CO)NC(=O)[C@@H](NC(=O)[C@H](Cc1ccccc1)NC(=O)[C@@H](NC(=O)CNC(=O)[C@H](CCC(N)=O)NC(=O)[C@H](CO)NC(=O)[C@@H](N)Cc1c[nH]cn1)[C@@H](C)O)[C@@H](C)O)C(=O)N[C@@H](CC(=O)O)C(=O)N[C@@H](CO)C(=O)N[C@@H](CCCNC(=N)N)C(=O)N[C@@H](CCCNC(=N)N)C(=O)N[C@@H](C)C(=O)N[C@@H](CCC(N)=O)C(=O)N[C@@H](CC(=O)O)C(=O)N[C@@H](Cc1ccccc1)C(=O)N[C@H](C(=O)N[C@@H](CCC(N)=O)C(=O)N[C@@H](Cc1c[nH]c2ccccc12)C(=O)N[C@@H](CC(C)C)C(=O)N[C@@H](CC(C)C)C(=O)N[C@@H](CCCCNC(=O)CC[C@H](NC(=O)CC[C@H](NC(=O)COCCOCCNC(=O)COCCOCCNC(=O)CC[C@H](NC(=O)CCCCCCCCCCCCCCCCC(=O)O)C(=O)O)C(=O)O)C(=O)O)C(=O)N[C@H](C(=O)O)[C@@H](C)O)C(C)C` [Example 52, N^ε28-([(4S)-5-hydroxy-4-[[(4S)-5-hydroxy-4-[[2-[2-[2-[[2-[2-[2-[[(4S)-5-hydroxy-4-[(18-hydroxy-18-oxooctadecanoyl)amino]-5-oxopentanoyl]amino]ethoxy]ethoxy]acetyl]amino]ethoxy]ethoxy]acetyl]amino]-5-oxopentanoyl]amino]-5-oxopentanoyl]) [Leu^27,Lys^28] Glucagon] gave an EC50 of 55 pM.

In turn, `CC(C)C[C@H](NC(=O)[C@H](CC(C)C)NC(=O)[C@H](Cc1c[nH]c2ccccc12)NC(=O)[C@H](CCC(N)=O)NC(=O)[C@@H](NC(=O)[C@H](Cc1ccccc1)NC(=O)[C@H](CC(=O)O)NC(=O)[C@H](CCC(N)=O)NC(=O)[C@H](C)NC(=O)[C@H](CCCNC(=N)N)NC(=O)[C@H](CCCNC(=N)N)NC(=O)[C@H](CO)NC(=O)[C@H](CC(=O)O)NC(=O)[C@H](CC(C)C)NC(=O)[C@H](Cc1ccc(O)cc1)NC(=O)[C@H](CCCCN)NC(=O)[C@H](CO)NC(=O)[C@H](Cc1ccc(O)cc1)NC(=O)[C@H](CC(=O)O)NC(=O)[C@H](CO)NC(=O)[C@@H](NC(=O)[C@H](Cc1ccccc1)NC(=O)[C@@H](NC(=O)CNC(=O)[C@H](CCC(N)=O)NC(=O)[C@H](CO)NC(=O)[C@@H](N)Cc1c[nH]cn1)[C@@H](C)O)[C@@H](C)O)C(C)C)C(=O)N[C@@H](CC(N)=O)C(=O)N[C@@H](CCCCNC(=O)CC[C@H](NC(=O)CC[C@H](NC(=O)COCCOCCNC(=O)COCCOCCNC(=O)CC[C@H](NC(=O)CCCCCCCCCCCCCCCCC(=O)O)C(=O)O)C(=O)O)C(=O)O)C(=O)O` [Example 53, N^ε29-([(4S)-5-hydroxy-4-[[(4S)-5-hydroxy-4-[[2-[2-[2-[[2-[2-[2-[[(4S)-5-hydroxy-4-[(18-hydroxy-18-oxooctadecanoyl)amino]-5-oxopentanoyl]amino]ethoxy]ethoxy]acetyl]amino]ethoxy]ethoxy]acetyl]amino]-5-oxopentanoyl]amino]-5-oxopentanyl]) [Leu^27,Lys^29] Glucagon] returned a concentration for a half-maximal effect (EC50) of 95 pM.

Regarding `CC(C)C[C@H](NC(=O)[C@H](Cc1ccc(O)cc1)NC(=O)[C@H](CCCCN)NC(=O)[C@H](CO)NC(=O)[C@H](Cc1ccc(O)cc1)NC(=O)[C@H](CC(=O)O)NC(=O)[C@H](CO)NC(=O)[C@@H](NC(=O)[C@H](Cc1ccccc1)NC(=O)[C@@H](NC(=O)CNC(=O)[C@H](CCC(N)=O)NC(=O)[C@H](CO)NC(=O)[C@@H](N)Cc1c[nH]cn1)[C@@H](C)O)[C@@H](C)O)C(=O)N[C@@H](CC(=O)O)C(=O)N[C@@H](CO)C(=O)N[C@@H](CCCCN)C(=O)N[C@@H](CCCCN)C(=O)N[C@@H](C)C(=O)N[C@@H](CCC(N)=O)C(=O)N[C@@H](CCC(=O)O)C(=O)N[C@@H](Cc1ccccc1)C(=O)N[C@H](C(=O)N[C@@H](CCCCNC(=O)COCCOCCNC(=O)COCCOCCNC(=O)CC[C@H](NC(=O)CCCCCCCCCCCCCCCCC(=O)O)C(=O)O)C(=O)N[C@@H](Cc1c[nH]c2ccccc12)C(=O)N[C@@H](CC(C)C)C(=O)N[C@@H](CC(C)C)C(=O)N[C@@H](CO)C(=O)N[C@H](C(=O)O)[C@@H](C)O)C(C)C` [Example 55, N^ε24-([2-[2-[2-[[2-[2-[2-[[(4S)-5-hydroxy-4-[(18-hydroxy-18-oxooctadecanoyl)amino]-5-oxopentanoyl]amino]ethoxy]ethoxy]acetyl]amino]ethoxy]ethoxy]acetyl]) [Lys^17,Lys^18,Glu^21,Lys^24,Leu^27, Ser^28] Glucagon] (H-HSQGTFTSDYSKYLDSKKAQEFVK([AEEA-AEEA-γGlu-C18 diacid])WLLST-OH; N-terminus and C-terminus assumed), the 50% effective concentration (EC50) was 9 pM.

On to `CC(C)C[C@H](NC(=O)[C@H](Cc1ccc(O)cc1)NC(=O)[C@H](CCCCN)NC(=O)[C@H](CO)NC(=O)[C@H](Cc1ccc(O)cc1)NC(=O)[C@H](CC(=O)O)NC(=O)[C@H](CO)NC(=O)[C@@H](NC(=O)[C@H](Cc1ccccc1)NC(=O)[C@@H](NC(=O)CNC(=O)[C@H](CCC(N)=O)NC(=O)[C@H](CO)NC(=O)[C@@H](N)Cc1c[nH]cn1)[C@@H](C)O)[C@@H](C)O)C(=O)N[C@@H](CC(=O)O)C(=O)N[C@@H](CO)C(=O)N[C@@H](CCCNC(=N)N)C(=O)N[C@@H](CCCNC(=N)N)C(=O)N[C@@H](C)C(=O)N[C@@H](CCC(N)=O)C(=O)N[C@@H](CC(=O)O)C(=O)N[C@@H](Cc1ccccc1)C(=O)N[C@H](C(=O)N[C@@H](CCCCNC(=O)COCCOCCNC(=O)COCCOCCNC(=O)CC[C@H](NC(=O)CCCCCCCCCCCCCCCCC(=O)O)C(=O)O)C(=O)N[C@@H](Cc1ccc(OP(=O)(O)O)cc1)C(=O)N[C@@H](CC(C)C)C(=O)N[C@@H](CC(C)C)C(=O)N[C@@H](CC(N)=O)C(=O)N[C@H](C(=O)O)[C@@H](C)O)C(C)C` [Example 56, N^ε24-([2-[2-[2-[[2-[2-[2-[[(4S)-5-hydroxy-4-[(18-hydroxy-18-oxooctadecanoyl)amino]-5-oxopentanoyl]amino]ethoxy]ethoxy]acetyl]amino]ethoxy]ethoxy]acetyl]) [Lys^24, (p)Tyr^25,Leu^27] Glucagon], for which a half-maximal effect (EC50) was put at 171 pM.

With `CC(C)C[C@H](NC(=O)[C@H](Cc1ccc(O)cc1)NC(=O)[C@H](CCCCN)NC(=O)[C@H](CO)NC(=O)[C@H](Cc1ccc(O)cc1)NC(=O)[C@H](CC(=O)O)NC(=O)[C@H](CO)NC(=O)[C@@H](NC(=O)[C@H](Cc1ccccc1)NC(=O)[C@@H](NC(=O)CNC(=O)[C@H](CCC(N)=O)NC(=O)[C@H](CO)NC(=O)[C@@H](N)Cc1c[nH]cn1)[C@@H](C)O)[C@@H](C)O)C(=O)N[C@@H](CC(=O)O)C(=O)N[C@@H](CO)C(=O)N[C@@H](CCCNC(=N)N)C(=O)N[C@@H](CCCNC(=N)N)C(=O)N[C@@H](C)C(=O)N[C@@H](CCC(N)=O)C(=O)N[C@@H](CCC(=O)O)C(=O)N[C@@H](Cc1ccccc1)C(=O)N[C@H](C(=O)N[C@@H](CCCCNC(=O)COCCOCCNC(=O)COCCOCCNC(=O)CC[C@H](NC(=O)CCCCCCCCCCCCCCCCC(=O)O)C(=O)O)C(=O)N[C@@H](CCCNC(=N)N)C(=O)N[C@@H](CC(C)C)C(=O)N[C@@H](CC(C)C)C(=O)N[C@@H](CC(N)=O)C(=O)N[C@H](C(=O)O)[C@@H](C)O)C(C)C` [Example 58, N^ε24-([2-[2-[2-[[2-[2-[2-[[(4S)-5-hydroxy-4-[(18-hydroxy-18-oxooctadecanoyl)amino]-5-oxopentanoyl]amino]ethoxy]ethoxy]acetyl]amino]ethoxy]ethoxy]acetyl]) [Glu^21,Lys^24,Arg^25,Leu^27] Glucagon], the half-maximal effective concentration (EC50) came to 74 pM.

On to `CC(C)C[C@H](NC(=O)[C@H](Cc1ccc(O)cc1)NC(=O)[C@H](CCCCN)NC(=O)[C@H](CO)NC(=O)[C@H](Cc1ccc(O)cc1)NC(=O)[C@H](CC(=O)O)NC(=O)[C@H](CO)NC(=O)[C@@H](NC(=O)[C@H](Cc1ccccc1)NC(=O)[C@@H](NC(=O)CNC(=O)[C@H](CCC(N)=O)NC(=O)[C@H](CO)NC(=O)[C@@H](N)Cc1c[nH]cn1)[C@@H](C)O)[C@@H](C)O)C(=O)N[C@@H](CC(=O)O)C(=O)N[C@@H](CO)C(=O)N[C@@H](CCCNC(=N)N)C(=O)N[C@@H](CCCNC(=N)N)C(=O)N[C@@H](C)C(=O)N[C@@H](CCC(N)=O)C(=O)N[C@@H](CC(=O)O)C(=O)N[C@@H](Cc1ccccc1)C(=O)N[C@H](C(=O)N[C@@H](CCC(N)=O)C(=O)N[C@@H](Cc1c[nH]c2ccccc12)C(=O)N[C@@H](CC(C)C)C(=O)N[C@@H](CC(C)C)C(=O)N[C@@H](CCCCNC(=O)CC[C@H](NC(=O)COCCOCCNC(=O)COCCOCCNC(=O)CC[C@H](NC(=O)CC[C@H](NC(=O)CCCCCCCCCCCCCCCCC(=O)O)C(=O)O)C(=O)O)C(=O)O)C(=O)N[C@H](C(=O)O)[C@@H](C)O)C(C)C` [Example 66, N^ε28-[(4S)-4-carboxy-4-[[2-[2-[2-[[2-[2-[2-[[(4S)-4-carboxy-4-[[(4S)-4-carboxy-4-(17-carboxyheptadecanoylamino)butanoyl]amino]butanoyl]amino]ethoxy]ethoxy]acetyl]amino]ethoxy]ethoxy]acetyl]amino]butanoyl]-[Leu^27,Lys^28]-Glucagon], for which the concentration giving a half-maximal response (EC50) was 93 pM.

Compound `CC(C)C[C@H](NC(=O)[C@H](Cc1ccc(O)cc1)NC(=O)[C@H](CCCCN)NC(=O)[C@H](CO)NC(=O)[C@H](Cc1ccc(O)cc1)NC(=O)[C@H](CC(=O)O)NC(=O)[C@H](CO)NC(=O)[C@@H](NC(=O)[C@H](Cc1ccccc1)NC(=O)[C@@H](NC(=O)CNC(=O)[C@H](CCC(N)=O)NC(=O)[C@H](CO)NC(=O)[C@@H](N)Cc1c[nH]cn1)[C@@H](C)O)[C@@H](C)O)C(=O)N[C@@H](CC(=O)O)C(=O)N[C@@H](CO)C(=O)N[C@@H](CCCNC(=N)N)C(=O)N[C@@H](CCCNC(=N)N)C(=O)N[C@@H](C)C(=O)N[C@@H](CCC(N)=O)C(=O)N[C@@H](CC(=O)O)C(=O)N[C@@H](Cc1ccccc1)C(=O)N[C@H](C(=O)N[C@@H](CCC(N)=O)C(=O)N[C@@H](Cc1c[nH]c2ccccc12)C(=O)N[C@@H](CC(C)C)C(=O)N[C@@H](CC(C)C)C(=O)N[C@@H](CCCCNC(=O)COCCOCCNC(=O)COCCOCCNC(=O)CC[C@H](NC(=O)CC[C@H](NC(=O)CC[C@H](NC(=O)CCCCCCCCCCCCCCCCC(=O)O)C(=O)O)C(=O)O)C(=O)O)C(=O)N[C@H](C(=O)O)[C@@H](C)O)C(C)C` [Example 67, N^ε28-[2-[2-[2-[[2-[2-[2-[[(4S)-4-carboxy-4-[[(4S)-4-carboxy-4-[[(4S)-4-carboxy-4-(17-carboxyheptadecanoylamino)butanoyl]amino]butanoyl]amino]butanoyl]amino]ethoxy]ethoxy]acetyl]amino]ethoxy]ethoxy]acetyl]-[Leu^27,Lys^28]-Glucagon] showed an EC50 of 116 pM.
